Legend:
Type in all cases: in vivo
Kochia (Kochia scoparia) [1] = assay: Test A postemergence
Procedure, shortened: (§1)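 Treatment is preemergence as a directed soil spray after planting, or postemergence at the one- to two-leaf stage, with test chemical in a non-phytotoxic solvent mixture plus surfactant. Plants stay in the greenhouse about 10 d before visual injury scoring on a 0 to 100 scale versus untreated controls.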

[2] = tested on: pigweed (Amaranthus retroflexus); assay: Test A postemergence
Procedure, shortened: as §1

[3] = tested on: Galium (catchweed bedstraw, Galium aparine); assay: Test A postemergence
Procedure, shortened: as §1

[4] = tested on: giant foxtail (Setaria faberii); assay: Test A postemergence
Procedure, shortened: as §1

[5] = tested on: wheat (Triticum aestivum); assay: Test A postemergence
Procedure, shortened: as §1

[6] = tested on: ryegrass, Italian (Italian ryegrass, Lolium multiflorum); assay: Test A postemergence
Procedure, shortened: as §1

[7] = tested on: blackgrass (Alopecurus myosuroides); assay: Test A postemergence
Procedure, shortened: as §1

[8] = tested on: ragweed (common ragweed, Ambrosia elatior); assay: Test A postemergence
Procedure, shortened: as §1

corn (Zea mays) = assay: Test A postemergence
Procedure, shortened: as §1

[9] = tested on: barnyardgrass (Echinochloa crus-galli); assay: Test A postemergence
Procedure, shortened: as §1

[10] = tested on: sedge, umbrella (small-flower umbrella sedge, Cyperus difformis); assay: Test B flooded paddy test; conditions: Flood, 250 g ai/ha; 0 to 100 scale where 0 is no effect and 100 is complete control; 13 to 15 d
Procedure, shortened: (§2)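 Percent control, visually estimated after 13–15 d in the greenhouse on a 0–100 basis, compares treated pots with untreated ones; compound was put into paddy water 3 cm above the soil when plants had two leaves.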

[11] = tested on: ducksalad (Heteranthera limosa); assay: Test B flooded paddy test; conditions: Flood, 250 g ai/ha; 0 to 100 scale where 0 is no effect and 100 is complete control; 13 to 15 d
Procedure, shortened: as §2

rice (Oryra sativa) = assay: Test B flooded paddy test; conditions: Flood, 250 g ai/ha; 0 to 100 scale where 0 is no effect and 100 is complete control; 13 to 15 d
Procedure, shortened: as §2

[12] = tested on: barnyardgrass (Echinochloa crus-galli); assay: Test B flooded paddy test; conditions: Flood, 250 g ai/ha; 0 to 100 scale where 0 is no effect and 100 is complete control; 13 to 15 d
Procedure, shortened: as §2

Kochia (Kochia scoparia) [13] = assay: Test A preemergence
Procedure, shortened: as §1

[14] = tested on: pigweed (Amaranthus retroflexus); assay: Test A preemergence
[15] = tested on: giant foxtail (Setaria faberii); assay: Test A preemergence
Procedure, shortened: as §1

[16] = tested on: ryegrass, Italian (Italian ryegrass, Lolium multiflorum); assay: Test A preemergence
Procedure, shortened: as §1

[17] = tested on: ragweed (common ragweed, Ambrosia elatior); assay: Test A preemergence
Procedure, shortened: as §1

[18] = tested on: barnyardgrass (Echinochloa crus-galli); assay: Test A preemergence
Procedure, shortened: as §1

[19] = 125 g ai/ha, postemergence, visual rating after approx. 10 d, 0 to 100 scale (0 no effect, 100 complete control)
[20] = Postemergence, 500 g ai/ha, 0 to 100 scale where 0 is no effect and 100 is complete control
[21] = 125 g ai/ha, Preemergence, visual injury after approximately 10 d, 0 to 100 scale where 0 is no effect and 100 is complete control
[22] = 500 g ai/ha, preemergence, 0 to 100 scale, 0 = no effect, 100 = complete control
[23] = 500 g ai/ha, postemergence, visual injury, 0 to 100 scale (0 no effect, 100 complete control), approx. 10 d

SMILES: O=C1NCC(c2ccc(F)cc2F)C1C(=O)Nc1ccccc1F (stereo not drawn) [Compound 620]
- Plant response rating, Kochia (Kochia (Kochia scoparia) [1]; [19]): 0
- Plant response rating, Kochia (Kochia (Kochia scoparia) [1]; [20]): 0
- Plant response rating, Pigweed [2, 19]: 0
- Plant response rating, Pigweed [2, 20]: 0
- Plant response rating, Galium [3, 19]: 0
- Plant response rating, Galium [3, 20]: 20
- Plant response rating, Foxtail, Giant [4, 19]: 30
- Plant response rating, Foxtail, Giant [4, 20]: 50
- Plant response rating, Wheat [5, 19]: 0
- Plant response rating, Wheat [5, 20]: 0
- Plant response rating, Ryegrass, Italian [6, 19]: 0
- Plant response rating, Ryegrass, Italian [6, 20]: 0
- Plant response rating, Blackgrass [7, 19]: 0
- Plant response rating, Blackgrass [7, 20]: 0
- Plant response rating, Ragweed [8, 19]: 0
- Plant response rating, Ragweed [8, 20]: 0
- Plant response rating, Corn (corn (Zea mays); [19]): 0
- Plant response rating, Corn (corn (Zea mays); [20]): 0
- Plant response rating, Barnyardgrass [9, 19]: 20
- Plant response rating, Barnyardgrass [9, 20]: 60
- Plant response rating, Sedge, Umbrella [10]: 0
- Plant response rating, Ducksalad [11]: 65
- Plant response rating, Rice (rice (Oryra sativa)): 0
- Plant response rating, Barnyardgrass [12]: 10
- Plant response rating, Kochia (Kochia (Kochia scoparia) [13]; [21]): 0
- Plant response rating, Kochia (Kochia (Kochia scoparia) [13]; [22]): 20
- Plant response rating, Pigweed [14, 21]: 0
- Plant response rating, Pigweed [14, 22]: 0
- Plant response rating, Foxtail, Giant [15, 21]: 80
- Plant response rating, Foxtail, Giant [15, 22]: 90
- Plant response rating, Ryegrass, Italian [16, 21]: 0
- Plant response rating, Ryegrass, Italian [16, 22]: 0
- Plant response rating, Ragweed [17, 21]: 0
- Plant response rating, Ragweed [17, 22]: 0
- Plant response rating, Barnyardgrass [18, 21]: 70
- Plant response rating, Barnyardgrass [18, 22]: 80

SMILES: C=CCOc1cccc(C2CNC(=O)C2(CC=C)C(=O)Nc2cccc(F)c2F)c1 (stereo not drawn) [Compound 631]
- Plant response rating, Kochia (Kochia (Kochia scoparia) [1]; [19]): 0
- Plant response rating, Kochia (Kochia (Kochia scoparia) [1]; [23]): 0
- Plant response rating, Pigweed [2, 19]: 0
- Plant response rating, Pigweed [2, 23]: 0
- Plant response rating, Galium [3, 19]: 0
- Plant response rating, Galium [3, 23]: 0
- Plant response rating, Foxtail, Giant [4, 19]: 0
- Plant response rating, Foxtail, Giant [4, 23]: 0
- Plant response rating, Wheat [5, 19]: 0
- Plant response rating, Wheat [5, 23]: 0
- Plant response rating, Ryegrass, Italian [6, 19]: 0
- Plant response rating, Ryegrass, Italian [6, 23]: 0
- Plant response rating, Blackgrass [7, 19]: 0
- Plant response rating, Blackgrass [7, 20]: 0
- Plant response rating, Ragweed [8, 19]: 0
- Plant response rating, Ragweed [8, 23]: 0
- Plant response rating, Corn (corn (Zea mays); [19]): 0
- Plant response rating, Corn (corn (Zea mays); [20]): 0
- Plant response rating, Barnyardgrass [9, 19]: 0
- Plant response rating, Barnyardgrass [9, 20]: 0
- Plant response rating, Sedge, Umbrella [10]: 0
- Plant response rating, Ducksalad [11]: 0
- Plant response rating, Rice (rice (Oryra sativa)): 0
- Plant response rating, Barnyardgrass [12]: 0
- Plant response rating, Kochia (Kochia (Kochia scoparia) [13]; [21]): 0
- Plant response rating, Kochia (Kochia (Kochia scoparia) [13]; [22]): 0
- Plant response rating, Pigweed [14, 21]: 0
- Plant response rating, Pigweed [14, 22]: 0
- Plant response rating, Foxtail, Giant [15, 21]: 0
- Plant response rating, Foxtail, Giant [15, 22]: 0
- Plant response rating, Ryegrass, Italian [16, 21]: 0
- Plant response rating, Ryegrass, Italian [16, 22]: 0
- Plant response rating, Ragweed [17, 21]: 0
- Plant response rating, Ragweed [17, 22]: 0
- Plant response rating, Barnyardgrass [18, 21]: 0
- Plant response rating, Barnyardgrass [18, 22]: 0

SMILES: CN1CC(c2cccc(F)c2)C(C(=O)Nc2cccc(F)c2F)C1=O (stereo not drawn) [Compound 632]
- Plant response rating, Kochia (Kochia (Kochia scoparia) [1]; [19]): 60
- Plant response rating, Kochia (Kochia (Kochia scoparia) [1]; [23]): 60
- Plant response rating, Pigweed [2, 19]: 0
- Plant response rating, Pigweed [2, 23]: 40
- Plant response rating, Galium [3, 19]: 50
- Plant response rating, Galium [3, 23]: 50
- Plant response rating, Foxtail, Giant [4, 19]: 90
- Plant response rating, Foxtail, Giant [4, 23]: 90
- Plant response rating, Wheat [5, 19]: 30
- Plant response rating, Wheat [5, 23]: 60
- Plant response rating, Ryegrass, Italian [6, 19]: 30
- Plant response rating, Ryegrass, Italian [6, 23]: 50
- Plant response rating, Blackgrass [7, 19]: 50
- Plant response rating, Blackgrass [7, 20]: 60
- Plant response rating, Ragweed [8, 19]: 20
- Plant response rating, Ragweed [8, 23]: 30
- Plant response rating, Corn (corn (Zea mays); [19]): 20
- Plant response rating, Corn (corn (Zea mays); [20]): 80
- Plant response rating, Barnyardgrass [9, 19]: 90
- Plant response rating, Barnyardgrass [9, 20]: 90
- Plant response rating, Sedge, Umbrella [10]: 50
- Plant response rating, Ducksalad [11]: 100
- Plant response rating, Rice (rice (Oryra sativa)): 30
- Plant response rating, Barnyardgrass [12]: 80
- Plant response rating, Kochia (Kochia (Kochia scoparia) [13]; [21]): 50
- Plant response rating, Kochia (Kochia (Kochia scoparia) [13]; [22]): 70
- Plant response rating, Pigweed [14, 21]: 0
- Plant response rating, Pigweed [14, 22]: 70
- Plant response rating, Foxtail, Giant [15, 21]: 90
- Plant response rating, Foxtail, Giant [15, 22]: 90
- Plant response rating, Ryegrass, Italian [16, 21]: 60
- Plant response rating, Ryegrass, Italian [16, 22]: 70
- Plant response rating, Ragweed [17, 21]: 60
- Plant response rating, Ragweed [17, 22]: 70
- Plant response rating, Barnyardgrass [18, 21]: 90
- Plant response rating, Barnyardgrass [18, 22]: 90

SMILES: CN1CC(c2cc(F)cc(F)c2)C(C(=O)Nc2cccc3c2CCCC3)C1=O (stereo not drawn) [Compound 660]
- Plant response rating, Kochia (Kochia (Kochia scoparia) [1]; [19]): 0
- Plant response rating, Kochia (Kochia (Kochia scoparia) [1]; [23]): 0
- Plant response rating, Pigweed [2, 19]: 0
- Plant response rating, Pigweed [2, 23]: 0
- Plant response rating, Galium [3, 19]: 0
- Plant response rating, Galium [3, 23]: 0
- Plant response rating, Foxtail, Giant [4, 19]: 80
- Plant response rating, Foxtail, Giant [4, 23]: 90
- Plant response rating, Wheat [5, 19]: 0
- Plant response rating, Wheat [5, 23]: 0
- Plant response rating, Ryegrass, Italian [6, 19]: 0
- Plant response rating, Ryegrass, Italian [6, 23]: 0
- Plant response rating, Blackgrass [7, 19]: 0
- Plant response rating, Blackgrass [7, 23]: 40
- Plant response rating, Ragweed [8, 19]: 0
- Plant response rating, Ragweed [8, 23]: 0
- Plant response rating, Corn (corn (Zea mays); [19]): 0
- Plant response rating, Corn (corn (Zea mays); [23]): 0
- Plant response rating, Barnyardgrass [9, 19]: 50
- Plant response rating, Barnyardgrass [9, 23]: 80
- Plant response rating, Sedge, Umbrella [10]: 0
- Plant response rating, Ducksalad [11]: 60
- Plant response rating, Rice (rice (Oryra sativa)): 15
- Plant response rating, Barnyardgrass [12]: 45
- Plant response rating, Kochia (Kochia (Kochia scoparia) [13]; [21]): 0
- Plant response rating, Kochia (Kochia (Kochia scoparia) [13]; [22]): 0
- Plant response rating, Pigweed [14, 21]: 0
- Plant response rating, Pigweed [14, 22]: 0
- Plant response rating, Foxtail, Giant [15, 21]: 80
- Plant response rating, Foxtail, Giant [15, 22]: 90
- Plant response rating, Ryegrass, Italian [16, 21]: 0
- Plant response rating, Ryegrass, Italian [16, 22]: 20
- Plant response rating, Ragweed [17, 21]: 0
- Plant response rating, Ragweed [17, 22]: 0
- Plant response rating, Barnyardgrass [18, 21]: 60
- Plant response rating, Barnyardgrass [18, 22]: 90

SMILES: Cc1cccc(C2CN(C)C(=O)C2C(=O)Nc2ccccc2S(C)(=O)=O)c1 (stereo not drawn) [Compound 668]
- Plant response rating, Kochia (Kochia (Kochia scoparia) [1]; [19]): 20
- Plant response rating, Kochia (Kochia (Kochia scoparia) [1]; [23]): 20
- Plant response rating, Pigweed [2, 19]: 0
- Plant response rating, Pigweed [2, 23]: 0
- Plant response rating, Galium [3, 19]: 20
- Plant response rating, Galium [3, 23]: 70
- Plant response rating, Foxtail, Giant [4, 19]: 90
- Plant response rating, Foxtail, Giant [4, 23]: 90
- Plant response rating, Wheat [5, 19]: 20
- Plant response rating, Wheat [5, 23]: 60
- Plant response rating, Ryegrass, Italian [6, 19]: 0
- Plant response rating, Ryegrass, Italian [6, 23]: 70
- Plant response rating, Blackgrass [7, 19]: 60
- Plant response rating, Blackgrass [7, 23]: 70
- Plant response rating, Ragweed [8, 19]: 0
- Plant response rating, Ragweed [8, 23]: 0
- Plant response rating, Corn (corn (Zea mays); [19]): 20
- Plant response rating, Corn (corn (Zea mays); [23]): 80
- Plant response rating, Barnyardgrass [9, 19]: 90
- Plant response rating, Barnyardgrass [9, 23]: 90
- Plant response rating, Sedge, Umbrella [10]: 0
- Plant response rating, Ducksalad [11]: 98
- Plant response rating, Rice (rice (Oryra sativa)): 0
- Plant response rating, Barnyardgrass [12]: 70
- Plant response rating, Kochia (Kochia (Kochia scoparia) [13]; [21]): 20
- Plant response rating, Kochia (Kochia (Kochia scoparia) [13]; [22]): 70
- Plant response rating, Pigweed [14, 21]: 20
- Plant response rating, Pigweed [14, 22]: 50
- Plant response rating, Foxtail, Giant [15, 21]: 90
- Plant response rating, Foxtail, Giant [15, 22]: 100
- Plant response rating, Ryegrass, Italian [16, 21]: 0
- Plant response rating, Ryegrass, Italian [16, 22]: 0
- Plant response rating, Ragweed [17, 21]: 0
- Plant response rating, Ragweed [17, 22]: 40
- Plant response rating, Barnyardgrass [18, 21]: 90
- Plant response rating, Barnyardgrass [18, 22]: 90

Source: US12077503B2, “Substituted cyclic amides and their use as herbicides” (FMC CORPORATION, priority 2015, dated 2024)
